Patent US20210323985A1, “SHIELDING AGENTS AND THEIR USE” (ENDOCYTE, INC., priority 2018, published 2021)

Columns and labels:
LNCaP tumors = experiment: Biodistribution of Ia-Lu with or without co-administered shielding agent in nude mice bearing LNCaP tumors; type: in vivo; conditions: 4 hours; 30 nmol/kg Ia-Lu; co-administration of 1 μmol/kg shielding agent, vs Ia-Lu alone; FIG. 9
Method: FIG. 9 is a chart showing the biodistribution at 4 hours in nude mice bearing LNCaP tumors at 30 nmol/kg of Ia-Lu with or without co-administration of 1 μmol/kg of a shielding agent. […] In the graph for each tissue Ia-Lu alone (left bar), Ia-Lu+compound 1m (middle bar), Ia-Lu+compound 1d (S-enantiomer) (right bar).
(§1) The shielding agents of the present disclosure were administered in combination with an imaging agent of the disclosure, and the biodistribution was analyzed.

22RV1 tumors = experiment: Biodistribution of 99mTc imaging conjugate 3a co-administered with a shielding agent in nude mice bearing 22RV1 tumors; type: in vivo; conditions: 4 hours; 30 nmol/kg 99mTc imaging conjugate 3a; co-administration of 1 μmol/kg shielding agent; FIG. 8
Method: FIG. 8 is a chart showing the biodistribution at 4 hours in nude mice bearing 22RV1 tumors at 30 nmol/kg of ^99mTC imaging conjugate 3a with co-administration of 1 μmol/kg of a shielding agent. […] In the graph for each tissue ^99mTC imaging conjugate 3a+compound 1d (S-enantiomer) (left bar), ^99mTC imaging conjugate 3a+compound 1d (R-enantiomer) (right bar).
as §1

## CCCCCCCCCCCCOC(=O)CC[C@@H](CP(=O)(O)O)C(=O)O [1d (S-enantiomer)]
LNCaP tumors
  Ia-Lu tumor to kidney ratio: enhanced
22RV1 tumors
  99mTc imaging conjugate 3a tumor to kidney ratio: enhanced
  activity of shielding agent (comparison of enantiomers): more active than the R-enantiomer

## CCCCOC(=O)CC[C@H](NC(=O)N[C@@H](CCC(=O)O)C(=O)O)C(=O)O [Compound 1m]
LNCaP tumors
  Ia-Lu tumor to kidney ratio: enhanced
